Experimental data from patent publication US9133128B2, “Pyrazole derivatives as cannabinoid receptor 1 antagonists” (Research Triangle Institute, priority 2011, dated 2015).
Like-named read-outs stand apart in the source and are kept apart here.

What was measured:
[1] = target: T1, CB1 (Homo sapiens, UniProt P21554); experiment: Displacement of [3H]CP55940 in membranes of CHO-K1 cells over-expressing CB1; assay type: binding; conditions: for Binding Selectivity using CP55940 Displacement: CB2 Ki over CB1 Ki
T1 construct: expressed in transfected cells; host or cells: CHO-K1 (membranes)
T1 sequence (P21554 whole entry): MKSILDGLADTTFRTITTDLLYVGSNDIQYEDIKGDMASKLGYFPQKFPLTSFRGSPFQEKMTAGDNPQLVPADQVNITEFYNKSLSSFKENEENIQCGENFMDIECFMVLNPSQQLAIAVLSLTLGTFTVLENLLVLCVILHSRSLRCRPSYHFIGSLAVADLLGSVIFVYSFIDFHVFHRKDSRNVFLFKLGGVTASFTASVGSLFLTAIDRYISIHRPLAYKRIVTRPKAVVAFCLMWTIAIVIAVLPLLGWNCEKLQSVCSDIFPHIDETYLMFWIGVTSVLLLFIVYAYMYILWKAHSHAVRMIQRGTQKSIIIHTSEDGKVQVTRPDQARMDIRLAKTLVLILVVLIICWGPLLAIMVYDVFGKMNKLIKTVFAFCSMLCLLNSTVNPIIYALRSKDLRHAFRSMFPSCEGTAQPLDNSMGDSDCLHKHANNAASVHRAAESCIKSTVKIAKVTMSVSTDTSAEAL

[2] = target: T2, CB2 (Homo sapiens, UniProt P34972); experiment: Displacement of [3H]CP55940 in membranes of CHO-K1 cells over-expressing CB2; assay type: binding
T2 construct: expressed in transfected cells; host or cells: CHO-K1 (membranes)
T2 sequence (P34972 whole entry): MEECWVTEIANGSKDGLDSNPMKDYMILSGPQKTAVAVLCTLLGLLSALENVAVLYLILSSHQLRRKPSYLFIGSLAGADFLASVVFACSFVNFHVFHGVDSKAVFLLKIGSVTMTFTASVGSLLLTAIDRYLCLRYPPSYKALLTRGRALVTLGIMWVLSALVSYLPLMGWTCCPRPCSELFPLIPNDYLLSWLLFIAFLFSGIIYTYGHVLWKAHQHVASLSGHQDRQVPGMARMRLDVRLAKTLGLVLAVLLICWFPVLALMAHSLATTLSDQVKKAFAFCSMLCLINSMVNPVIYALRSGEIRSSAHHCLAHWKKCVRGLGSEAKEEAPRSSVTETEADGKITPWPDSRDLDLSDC
Protocol: All compounds were characterized by H^1 NMR and evaluated using a calcium mobilization assay. Each compound was pharmacologically characterized using a functional fluorescent CB1 activated Gαq16-coupled intracellular calcium mobilization assay in CHO-K1 cells as has been previously described and apparent affinity (Ke) values were determined. See Zhang et al., J. Med. Chem. 2010, 53, 7048, which is incorporated herein by reference. Further characterization of select compounds was performed using radioligand displacement of [3H]1 and equilibrium dissociation constant (Ki) values were determined. Selectivity of these compounds at CB1 versus CB2 was also determined by obtaining Ki values at either receptor using displacement of [3H]CP55940 in membranes of CHO-K1 cells over-expressing either receptor. Data reported are average values from 3-6 measurements.
Select compounds were chosen for further study in radioligand displacement assays using radiolabeled rimonobant, SR141716 ([^3H]1). […] Selectivity against the CB2 receptor was determined by comparing the compound displacement of radiolabeled CP55940, which is a cannabinoid known to act as a full agonist at both CB1 and CB2 receptors. In general, tested compounds were selective for CB1 over CB2.

[3] = target: T1, CB1; experiment: CB1 activated Gαq16-coupled intracellular calcium mobilization assay in CHO-K1 cells (apparent affinity Ke); assay type: cell-based
[4] = target: T1, CB1; experiment: Radioligand displacement of [3H]SR141716 at CB1; assay type: binding
[5] = tested on: MDCK-MDR; experiment: MDCK-MDR transport (apical to basal); assay type: in vitro ADME; conditions: Table 4
[6] = Table 4, read-out: Ki (nM) v. [3H] CP55940 at CB1
[7] = Table 4, read-out: Ki (nM) v. [3H] CP55940 at CB2
[8] = Table 4, calcium mobilization, read-out: Ke (nM) at CB1
[9] = Table 4, read-out: Ki (nM) v. [3H] SR141716 at CB1

SMILES	Binding Selectivity using CP55940 Displacement ([1]; Table 4)	Ki [1, 6] [nM]	Ki [2, 7] [nM]	Ki [4, 9] [nM]	% MDCK-MDR transport (apical to basal) [5] [%]	also measured
CCCCNC(=O)NC1(c2ccccc2)CCN(C(=O)c2nn(-c3ccc(Cl)cc3Cl)c(-c3ccc(Cl)cc3)c2C)CC1 [Cl, phenyl, NHC(O)NHC4H9, 3-butyl-1-(1-{[5-(4-chlorophenyl)-1-(2,4-dichlorophenyl)-4-methyl-1H-pyrazol-3-yl]carbonyl}-4-phenylpiperidin-4-yl)urea]	178.1	15.5	2760	–	–	Kb [3, 8]: 0.41 nM
Cc1c(C(=O)N2CCC(C(N)=O)(c3ccccc3)CC2)nn(-c2ccc(Cl)cc2Cl)c1-c1ccc(Br)cc1 [Br, phenyl, CONH2, 1-{[5-(4-bromophenyl)-1-(2,4-dichlorophenyl)-4-methyl-1H-pyrazol-3-yl]carbonyl}-4-phenylpiperidine-4-carboxamide]	226.3	14.5	3280	2.67	–	–
CCNC1(C(N)=O)CCN(C(=O)c2nn(-c3ccc(Cl)cc3Cl)c(-c3ccc(Cl)cc3)c2C)CC1 [Cl, NHC2H5, C(O)NH2, 1-{[5-(4-chlorophenyl)-1-(2,4-dichlorophenyl)-4-methyl-1H-pyrazol-3-yl]carbonyl}-4-(ethylamino)piperidine-4-carboxamide]	–	78.4	2220	34.6	–	–
CCOC(=O)N1CCC(NC(=O)c2nn(-c3ccc(Cl)cc3Cl)c(-c3ccc(Cl)cc3)c2C)CC1 [OC2H5, Ethyl 4-[5-(4-Chlorophenyl)-1-(2,4-dichlorophenyl)-4-methyl-1H-pyrazole-3-amido]piperidine-1-carboxylate]	–	–	–	–	–	Binding Selectivity using CP55940 Displacement ([1]; Table 5): 551.1; Ki ([1]; Table 5, read-out: Ki (nM) v. [3H] CP55940 at CB1): 14.6 nM; Ki ([2]; Table 5, read-out: Ki (nM) v. [3H] CP55940 at CB2): 8070 nM; Kb [3]: 28.6 nM
Cc1c(C(=O)NCC2CCC(CNS(C)(=O)=O)CC2)nn(-c2ccc(Cl)cc2Cl)c1-c1ccc(Cl)cc1 (mixture of isomers)	–	–	–	–	–	Ki ([1]; Table 3, radioligand [3H]CP55940, read-out: Ki(μM) CB1 CP55940): 36 nM; Ki ([4]; Table 3, radioligand [3H]SR141716, read-out: Ki(μM) CB1 SR141716): 8 nM; Ki ([2]; Table 3, radioligand [3H]CP55940, read-out: Ki(μM) CB2 CP55940): 960 nM
Cc1c(C(=O)N2CCC(C(N)=O)(c3ccccc3)CC2)nn(-c2ccc(Cl)cc2Cl)c1-c1ccc(Cl)cc1 [Cl, phenyl, C(O)NH2, 1-{[5-(4-chlorophenyl)-1-(2,4-dichlorophenyl)-4-methyl-1H-pyrazol-3-yl]carbonyl}-4-phenylpiperidine-4-carboxamide]	1600.0	3.44	5500	0.44	8.1 ± 11.5	Kb [3]: 0.45 nM

Further lines, with some results ahead:

Binding Selectivity using CP55940 Displacement ([1]; Table 4)	Ki [1, 6] [nM]	Ki [2, 7] [nM]	Ki [4, 9] [nM]	% MDCK-MDR transport (apical to basal) [5] [%]	SMILES	also measured
1.0	384	400	72.5	–	Cc1c(C(=O)N2CCC(O)(c3ccccc3)CC2)nn(-c2ccc(Cl)cc2Cl)c1-c1ccc(N(C)C)cc1 [N(CH3)2, phenyl, OH, 1-{[1-(2,4-dichlorophenyl)-5-[4-(dimethylamino)phenyl]-4-methyl-1H-pyrazol-3-yl]carbonyl}-4-phenylpiperidin-4-ol]	Kb [3, 8]: 679 nM
5.6	7.27	41	3.28	3.14 ± 0.89	Cc1c(C(=O)N2CCC(NS(C)(=O)=O)(c3ccccc3)CC2)nn(-c2ccc(Cl)cc2Cl)c1-c1ccc(Cl)cc1 [Cl, phenyl, NHSO2CH3, N-(1-{[5-(4-chlorophenyl)-1-(2,4-dichlorophenyl)-4-methyl-1H-pyrazol-3-yl]carbonyl}-4-phenylpiperidin-4-yl)methanesulfonamide]	–
10.8	104	1130	30.5	–	Cc1c(C(=O)N2CCC(N)(c3ccccc3)CC2)nn(-c2ccc(Cl)cc2Cl)c1-c1ccc(Cl)cc1 [Cl, phenyl, NH2, 1-{[5-(4-chlorophenyl)-1-(2,4-dichlorophenyl)-4-methyl-1H-pyrazol-3-yl]carbonyl}-4-phenylpiperidin-4-amine]	Kb [3, 8]: 485 nM
12.3	67.4	831	9.63	–	Cc1c(C(=O)N2CCC(O)(c3ccccc3)CC2)nn(-c2ccc(Cl)cc2Cl)c1-c1ccc(Cl)cc1 [Cl, phenyl, OH, 1-{[5-(4-chlorophenyl)-1-(2,4-dichlorophenyl)-4-methyl-1H-pyrazol-3-yl]carbonyl}-4-hydroxy-4-phenylpiperidine]	–
48.9	42.3	2110	6.02	<1	Cc1c(C(=O)N2CCC(NC(=O)OC(C)(C)C)(c3ccccc3)CC2)nn(-c2ccc(Cl)cc2Cl)c1-c1ccc(Cl)cc1 [Cl, phenyl, NHC(O)O(t-butyl), tert-Butyl N-(1-{[5-(4-chlorophenyl)-1-(2,4-dichlorophenyl)-4-methyl-1H-pyrazol-3-yl]carbonyl}-4-phenylpiperidin-4-yl)carbamate]	–
424.6	47.1	≥ 20000	18.1	<1	Cc1c(C(=O)N2CCC(NC(=O)NC(C)(C)C)(c3ccccc3)CC2)nn(-c2ccc(Cl)cc2Cl)c1-c1ccc(Cl)cc1 [Cl, phenyl, NHC(O)NH(t-butyl), 3-tert-butyl-1-(1-{[5-(4-chlorophenyl)-1-(2,4-dichlorophenyl)-4-methyl-1H-pyrazol-3-yl]carbonyl}-4-phenylpiperidin-4-yl)urea]	–
3.4	62.6	214	13.7	–	CC(=O)NC1(c2ccccc2)CCN(C(=O)c2nn(-c3ccc(Cl)cc3Cl)c(-c3ccc(Cl)cc3)c2C)CC1 [Cl, phenyl, NHC(O)CH3, N-(1-{[5-(4-chlorophenyl)-1-(2,4-dichlorophenyl)-4-methyl-1H-pyrazol-3-yl]carbonyl}-4-phenylpiperidin-4-yl)acetamide]	Kb [3, 8]: 201 nM
364.0	13.5	4910	–	<1	Cc1c(C(=O)N2CCC(NC(=O)NC(C)C)(c3ccccc3)CC2)nn(-c2ccc(Cl)cc2Cl)c1-c1ccc(Cl)cc1 [Cl, phenyl, NHC(O)NHCH(CH3)2, 1-(1-{[5-(4-chlorophenyl)-1-(2,4-dichlorophenyl)-4-methyl-1H-pyrazol-3-yl]carbonyl}-4-phenylpiperidin-4-yl)-3-(propan-2-yl)urea]	–
421.6	19.9	8390	–	<1	Cc1c(C(=O)N2CCC(C(=O)NC(C)(C)C)(c3ccccc3)CC2)nn(-c2ccc(Cl)cc2Cl)c1-c1ccc(Cl)cc1 [Cl, phenyl, C(O)NH(t-butyl), N-(tert-butyl)-1-(5-(4-chlorophenyl)-1-(2,4-dichlorophenyl)-4-methyl-1H-pyrazole-3-carbonyl)-4-phenylpiperidine-4-carboxamide]	–
